Where two headings read alike, the source gives them in different places.
Experiment: Ex vivo biodistribution of 177Lu-labeled ligands in PC-3 tumor-bearing mice
Conditions: mouse; for tissue to tissue ratio at 1 h / tissue to tissue ratio at 4 h / tissue to tissue ratio at 24 h / tissue to tissue ratio at 72 h / tissue to tissue ratio at 120 h: male, NOD.Cg-Rag1^tm1Mom Il2rg^tm1Wjl/SzJ (NRG), iv, total radioactivity; for tissue to tissue ratio at 1 h / tissue uptake at 1 h: 1 h pi; for tissue to tissue ratio at 4 h / tissue uptake at 4 h: 4 h pi; for tissue to tissue ratio at 24 h / tissue uptake at 24 h: 24 h pi; for tissue to tissue ratio at 120 h / tissue uptake at 120 h: 120 h pi; for tissue uptake at 1 h / tissue uptake at 4 h / tissue uptake at 24 h / tissue uptake at 72 h / tissue uptake at 120 h: intravenous
Experimental: SPECT/CT imaging was conducted using an MI Labs (Houten, The Netherlands) U-SPECT-II/CT scanner with a custom-made ultra-high sensitivity big mouse collimator (2 mm pinhole size) following published procedure. The experiments were obtained in accordance with the same protocol established in the PET/CT imaging and ex vivo biodistributions section. The mice were used for SPECT/CT imaging and ex vivo biodistributions studies once the tumors reached a diameter of 5–8 mm. PC-3 tumor-bearing mice were sedated (2.5% isoflurane in O2) and injected with 31.4–36.9 MBq of the ^177Lu-labeled ligand through a lateral caudal tail vein. The mouse was imaged at 1, 4, 24, 72, and 120 h pi. At each time point, a 5 min CT scan was performed with 615 μA and 60 kV parameters for localization and attenuation, followed by two 30 min static SPECT scans in list mode with an energy window centered around 208 keV. The U-SPECT II software was used to reconstruct data, and the images were decay corrected to the time of injection with PMOD v 3.402 (PMOD Technologies GmbH, Fallanden, Switzerland).
For ex vivo biodistribution studies, the mice were injected with ~3–5 MBq of the ^177Lu-labeled ligand (n = 5). At 1, 4, 24, 72, and 120 h post-injection, the mice were anesthetized with 2% isoflurane, euthanized by CO2 inhalation, and the tissues/organs of interest were […] for radioactivity counting. The blocking study was performed at 1 h pi via co-injection of the ^177Lu-labeled ligand with 100 μg of [D-Phe^6,Leu-NHEt^13,des-Met^14]Bombesin(6–14).

[1] = tumor/blood, n = 5, read-out: Tumor/blood uptake ratio
[2] = tumor/kidney, n = 5, read-out: Tumor/kidney uptake ratio
[3] = tumor/muscle, n = 5, read-out: Tumor/muscle uptake ratio
[4] = tumor/pancreas, n = 5, read-out: Tumor/pancreas uptake ratio
[5] = PC-3 tumor, n = 5, read-out: PC-3 tumor uptake
[6] = adrenal glands, n = 5, read-out: Adrenal glands uptake
[7] = blood, n = 5, read-out: Blood uptake
[8] = bone, n = 5, read-out: Bone uptake
[9] = brain, n = 5, read-out: Brain uptake
[10] = fat, n = 5, read-out: Fat uptake
[11] = heart, n = 5, read-out: Heart uptake

SMILES: CC(C)C[C@@H](CN1CC(F)(F)C[C@H]1C(N)=O)NC(=O)[C@H](Cc1c[nH]cn1)NC(=O)CN(C)C(=O)[C@@H](NC(=O)[C@H](C)NC(=O)[C@H](Cc1c[nH]c2ccccc12)NC(=O)[C@H](CCC(N)=O)NC(=O)[C@@H](Cc1ccccc1)NC(=O)CN1CCC(NC(=O)CN2CCN(CC(=O)O)CCN(CC(=O)O)CCN(CC(=O)O)CC2)CC1)C(C)C [[^177Lu]Lu-LW02080, metal not drawn]
- tissue to tissue ratio at 1 h (tumor/blood, blocked (100 µg GRPR antagonist co-injected), read-out: Tumor/blood uptake ratio): 3.06 ± 0.99
- tissue to tissue ratio at 1 h [1]: 16.9 ± 5.57
- tissue to tissue ratio at 4 h [1]: 136 ± 14.7
- tissue to tissue ratio at 24 h [1]: 365 ± 251
- tissue to tissue ratio at 72 h (tumor/blood, 72 h pi, n = 5, read-out: Tumor/blood uptake ratio): 1300 ± 703
- tissue to tissue ratio at 120 h [1]: 529 ± 380
- tissue to tissue ratio at 1 h (tumor/kidney, blocked (100 µg GRPR antagonist co-injected), read-out: Tumor/kidney uptake ratio): 0.52 ± 0.08
- tissue to tissue ratio at 1 h [2]: 2.17 ± 0.49
- tissue to tissue ratio at 4 h [2]: 1.61 ± 0.3
- tissue to tissue ratio at 24 h [2]: 1.34 ± 0.38
- tissue to tissue ratio at 72 h (tumor/kidney, 72 h pi, n = 5, read-out: Tumor/kidney uptake ratio): 2.17 ± 0.33
- tissue to tissue ratio at 120 h [2]: 2.77 ± 0.65
- tissue to tissue ratio at 1 h (tumor/muscle, blocked (100 µg GRPR antagonist co-injected), read-out: Tumor/muscle uptake ratio): 14.6 ± 2.5
- tissue to tissue ratio at 1 h [3]: 90 ± 17.3
- tissue to tissue ratio at 4 h [3]: 275 ± 35
- tissue to tissue ratio at 24 h [3]: 149 ± 50.5
- tissue to tissue ratio at 72 h (tumor/muscle, 72 h pi, n = 5, read-out: Tumor/muscle uptake ratio): 356 ± 110
- tissue to tissue ratio at 120 h [3]: 214 ± 77.9
- tissue to tissue ratio at 1 h (tumor/pancreas, blocked (100 µg GRPR antagonist co-injected), read-out: Tumor/pancreas uptake ratio): 6.53 ± 0.76
- tissue to tissue ratio at 1 h [4]: 14.8 ± 2.39
- tissue to tissue ratio at 4 h [4]: 48.1 ± 11.3
- tissue to tissue ratio at 24 h [4]: 26.5 ± 4.82
- tissue to tissue ratio at 72 h (tumor/pancreas, 72 h pi, n = 5, read-out: Tumor/pancreas uptake ratio): 46.8 ± 13.9
- tissue to tissue ratio at 120 h [4]: 51.5 ± 13.9
- tissue uptake at 1 h (PC-3 tumor, 100 ug, blocked (100 µg GRPR antagonist co-injected), read-out: PC-3 tumor uptake): 2.02 ± 0.44 %ID/g
- tissue uptake at 1 h [5]: 5.67 ± 1.02 %ID/g
- tissue uptake at 4 h [5]: 2.96 ± 0.37 %ID/g
- tissue uptake at 24 h [5]: 1.12 ± 0.2 %ID/g
- tissue uptake at 72 h (PC-3 tumor, 72 h pi, n = 5, read-out: PC-3 tumor uptake): 0.55 ± 0.15 %ID/g
- tissue uptake at 120 h [5]: 0.32 ± 0.06 %ID/g
- tissue uptake at 72 h (PC-3 tumor, after 72 h pi, read-out: tumor uptake): < 1 %ID/g
- tissue uptake at 1 h (adrenal glands, 100 ug, blocked (100 µg GRPR antagonist co-injected), read-out: Adrenal glands uptake): 0.23 ± 0.06 %ID/g
- tissue uptake at 1 h [6]: 0.18 ± 0.05 %ID/g
- tissue uptake at 4 h [6]: 0.17 ± 0.09 %ID/g
- tissue uptake at 24 h [6]: 0.12 ± 0.05 %ID/g
- tissue uptake at 72 h (adrenal glands, 72 h pi, n = 5, read-out: Adrenal glands uptake): 0.02 ± 0.01 %ID/g
- tissue uptake at 120 h [6]: 0.03 ± 0.02 %ID/g
- tissue uptake at 1 h (blood, 100 ug, blocked (100 µg GRPR antagonist co-injected), read-out: Blood uptake): 0.74 ± 0.18 %ID/g
- tissue uptake at 1 h [7]: 0.37 ± 0.14 %ID/g
- tissue uptake at 4 h [7]: 0.02 %ID/g
- tissue uptake at 24 h [7]: 0.01 ± 0.01 %ID/g
- tissue uptake at 1 h (bone, 100 ug, blocked (100 µg GRPR antagonist co-injected), read-out: Bone uptake): 0.07 ± 0.04 %ID/g
- tissue uptake at 1 h [8]: 0.06 ± 0.01 %ID/g
- tissue uptake at 4 h [8]: 0.01 %ID/g
- tissue uptake at 24 h [8]: 0.02 ± 0.01 %ID/g
- tissue uptake at 72 h (bone, 72 h pi, n = 5, read-out: Bone uptake): 0.01 ± 0.01 %ID/g
- tissue uptake at 120 h [8]: 0.01 ± 0.01 %ID/g
- tissue uptake at 1 h (brain, 100 ug, blocked (100 µg GRPR antagonist co-injected), read-out: Brain uptake): 0.02 ± 0.01 %ID/g
- tissue uptake at 1 h [9]: 0.02 %ID/g
- tissue uptake at 4 h [9]: 0.01 %ID/g
- tissue uptake at 1 h (fat, 100 ug, blocked (100 µg GRPR antagonist co-injected), read-out: Fat uptake): 0.09 ± 0.04 %ID/g
- tissue uptake at 1 h [10]: 0.04 ± 0.02 %ID/g
- tissue uptake at 4 h [10]: 0.01 ± 0.01 %ID/g
- tissue uptake at 24 h [10]: 0.01 %ID/g
- tissue uptake at 1 h (heart, 100 ug, blocked (100 µg GRPR antagonist co-injected), read-out: Heart uptake): 0.23 ± 0.05 %ID/g
- tissue uptake at 1 h [11]: 0.13 ± 0.05 %ID/g
- tissue uptake at 4 h [11]: 0.03 ± 0.01 %ID/g
- tissue uptake at 24 h [11]: 0.02 ± 0.01 %ID/g
- tissue uptake at 72 h (heart, 72 h pi, n = 5, read-out: Heart uptake): 0.01 %ID/g

From PMC11859184, “Synthesis and Evaluation of ^68Ga- and ^177Lu-Labeled [diF-Pro^14]Bombesin(6−14) Analogs for Detection and Radioligand Therapy of Gastrin-Releasing Peptide Receptor-Expressing Cancer” (Pharmaceuticals, 2025)
